Tests used:
Treg cells = assay: pSTAT5 concentration-response in human LRS-derived PBMC samples (flow cytometry): Treg cells; format: cell-based; conditions: ratio of pSTAT5 EC50 values; for CD8+/Treg ratio: Table 12; for CD8/Treg ratio: Table 4
Method: These studies were performed at PrimityBio LLC (Fremont, Calif.). […] Staining panel for flow cytometry study of LRS-derived PBMC samples include markers for Effector T cells (Teff: CD3+, CD4+, CD8+, CD127+), NK cells (CD3-, CD16+), and Regulatory T cells (Treg: CD3+, CD4+, CD8-, IL-2Rα+, CD127-1).
The EC50 values (pg/mL) was calculated from dose response curves generated from MFI plots.
These studies were performed at PrimityBio LLC (Fremont, Calif.). […] Staining panel for flow cytometry study of LRS-derived PBMC samples include markers CD4, CD4+ memory central, CD4+ memory effect, CD4+ memory T cells, CD4+ Naive T cells, CD4+ T cells, CD8, CD8+ memory central, CD8+ memory effect, CD8+ memory T cells, CD8+ Naive T cells, CD8+ T cells, NK cells, and T regulatory cells.
Conjugates of Table 12 were synthesized by modification of SEQ NO. 1. These studies were performed at PrimityBio LLC (Fremont, Calif.).
The EC50 values (pg/ml) were calculated from dose response curves generated from the MFI plots.

CTLL-2 = CTLL-2 proliferation; format: cell-based
[1] = PK study E3826-U1704 in naïve C57BL/6 mice (human IL-2 ELISA of plasma); format: in vivo; conditions: for AUC0-t / AUCINF / CL / Cmax / Tmax / Vss (distribution volume) / t½: C57BL/6 female mice, single IV bolus 0.3 mg/kg, E62_5 kD from a separate study; for mean plasma concentrations measurable out to (post-dose): single IV bolus, 120 h = last measured time point
Method: Terminal blood samples were collected via cardiac puncture at the points indicated. […] Plasma and blood cells (in both studies) and tumors in study E3826-U1803 were collected for PK and PD analyses.
Bioanalysis of plasma samples was performed using a qualified human IL-2 ELISA assay (Abcam, Cambridge, UK). Concentrations of Aldesleukin, E62_30kD and P65_30kD and the internal standard in samples derived from plasma were determined using an ELISA assay. […] The PK data were imported into Phoenix WinNonlin v6.4 (Certara/Pharsight, Princeton, N.J.) for analysis. The group mean plasma concentration versus time data were analyzed with noncompartmental methods using an IV bolus administration model.

[2] = PK study of K35_30kD in C57BL/6 mice (Example 8); format: in vivo; conditions: male C57BL/6 mice
Method: The lyophilized test article was reconstituted in PBS, and nine male C57BL/6 mice were dosed with 0.3 and 3 mg/kg via intravenous tail vein injection for each dose group (see collection details below). Blood samples were collected at 0.08, 0.25, 0.5, 1, 2, 4, 8, 12, and 24 hours post dose. […] To adjust for ELISA-specific differences in sensitivity of kit detection of native and PEGylated compounds, native IL-2 and K35_30kD test article standard curves were generated using the test article diluent buffer, and data were analyzed with respect to respective standard curves. The data plotted represent the mean and SEM of three individual samples (biological replicates) as described above, and PK parameters for K35_30 kD test articles were extracted and summarized in Table 14.

D20_30kD: 30 kD PEGylated IL-2 conjugate at D20, made by modification of SEQ NO. 1 [Compound D20_30kD]
CD8+/Treg ratio (Treg cells): 8 | EC50, CTLL-2 proliferation (CTLL-2; Table 12): 689939 pg/mL

E62K: IL-2 variant with residue substitution E62K, not PEGylated [Compound E62K]
CD8/Treg ratio (Treg cells): 5.8 | EC50, CTLL-2 proliferation (CTLL-2; Table 4): 58,213 pg/mL

E62_5kD: SEQ ID NO: 21: IL-2 (SEQ ID NO: 4) with E62 replaced by AzK conjugated to methoxy linear 5 kDa PEG [Compound E62_5kD]
CD8/Treg ratio (Treg cells): 2.3 | EC50, CTLL-2 proliferation (CTLL-2; Table 4): 275,590 pg/mL | AUC0-t [1]: 798 ng·h/mL | AUCINF [1]: 807 ng·h/mL | CL [1]: 6.2 mL/min/kg | Cmax [1]: 936 ng/mL | Tmax [1]: 7.98 min | Vss (distribution volume) [1]: 0.404 L/kg | t½ [1]: 2.56 h | mean plasma concentrations measurable out to (post-dose) [1]: 12 h

E62_30kD: SEQ ID NO: 26: IL-2 (SEQ ID NO: 4) with E62 replaced by AzK conjugated to methoxy linear 30 kDa PEG [Compound E62_30kD]
CD8/Treg ratio (Treg cells): 1.8 | EC50, CTLL-2 proliferation (CTLL-2; Table 4): 398,012 pg/mL | AUC0-t [1]: 37,100 h*ng/mL | AUCINF [1]: 37,100 h*ng/mL | CL [1]: 0.134 mL/min/kg | Cmax [1]: 4,230 ng/mL | Tmax [1]: 1.8 min | Vss (distribution volume) [1]: 0.0923 L/kg | t½ [1]: 14.500 h | mean plasma concentrations measurable out to (post-dose) [1]: 120 h

E100_30kD: 30 kD PEGylated IL-2 conjugate at E100, made by modification of SEQ NO. 1 [Compound E100_30kD]
CD8+/Treg ratio (Treg cells): 405 | EC50, CTLL-2 proliferation (CTLL-2; Table 12): 1676 pg/mL

H16_30kD: 30 kD PEGylated IL-2 conjugate at H16, made by modification of SEQ NO. 1 [Compound H16_30kD]
CD8+/Treg ratio (Treg cells): 345 | EC50, CTLL-2 proliferation (CTLL-2; Table 12): 80755 pg/mL

K9_30kD: 30 kD PEGylated IL-2 conjugate at K9, made by modification of SEQ NO. 1 [Compound K9_30kD]
CD8+/Treg ratio (Treg cells): 496 | EC50, CTLL-2 proliferation (CTLL-2; Table 12): 504 pg/mL

K35_30kD: SEQ ID NO: 29: IL-2 (SEQ ID NO: 4) with K35 replaced by AzK conjugated to methoxy linear 30 kDa PEG [Compound K35_30kD]
CD8/Treg ratio (Treg cells): 176.0 | AUC1/2extrap ([2]; 0.3 mg/kg single IV): 35.3% | AUCo-t/D ([2]; 0.3 mg/kg single IV): 128000 ng·h/mL | AUG0-∞ ([2]; 0.3 mg/kg single IV): 59600 ng·h/mL | Cmax ([2]; 0.3 mg/kg single IV): 6080 ng/mL | Cmax/D ([2]; 0.3 mg/kg single IV): 20300 kg·ng/mL/mg | Tmax ([2]; 0.3 mg/kg single IV): 0.250 h | t1/2 ([2]; 0.3 mg/kg single IV): 18.2 h | AUC1/2extrap ([2]; 3 mg/kg single IV): 37.4% | AUCo-t/D ([2]; 3 mg/kg single IV): 142000 ng·h/mL | AUG0-∞ ([2]; 3 mg/kg single IV): 679000 ng·h/mL | Cmax ([2]; 3 mg/kg single IV): 57700 ng/mL | Cmax/D ([2]; 3 mg/kg single IV): 19200 kg·ng/mL/mg | Tmax ([2]; 3 mg/kg single IV): 0.250 h | t1/2 ([2]; 3 mg/kg single IV): 19.5 h

L19_30kD: 30 kD PEGylated IL-2 conjugate at L19, made by modification of SEQ NO. 1 [Compound L19_30kD]
CD8+/Treg ratio (Treg cells): 241 | EC50, CTLL-2 proliferation (CTLL-2; Table 12): 3510 pg/mL

M23_30kD: 30 kD PEGylated IL-2 conjugate at M23, made by modification of SEQ NO. 1 [Compound M23_30kD]
CD8+/Treg ratio (Treg cells): 524 | EC50, CTLL-2 proliferation (CTLL-2; Table 12): 1102 pg/mL

N26_30kD: 30 kD PEGylated IL-2 conjugate at N26, made by modification of SEQ NO. 1 [Compound N26_30kD]
CD8+/Treg ratio (Treg cells): 483 | EC50, CTLL-2 proliferation (CTLL-2; Table 12): 2594 pg/mL

N88R/D109_30kD: IL-2 variant N88R with 30 kD PEG at D109, made by modification of SEQ NO. 1
CD8+/Treg ratio (Treg cells): 71 | EC50, CTLL-2 proliferation (CTLL-2; Table 12): 59577 pg/mL

N88R: IL-2 variant with substitution N88R [Compound N88R]
CD8+/Treg ratio (Treg cells): 1356 | EC50, CTLL-2 proliferation (CTLL-2; Table 12): 363 pg/mL

N88_30kD: 30 kD PEGylated IL-2 conjugate at N88, made by modification of SEQ NO. 1 [Compound N88_30kD]
CD8+/Treg ratio (Treg cells): 34 | EC50, CTLL-2 proliferation (CTLL-2; Table 12): 66606 pg/mL

N119_30kD: 30 kD PEGylated IL-2 conjugate at N119, made by modification of SEQ NO. 1 [Compound N119_30kD]
CD8+/Treg ratio (Treg cells): 268 | EC50, CTLL-2 proliferation (CTLL-2; Table 12): 1215 pg/mL

P65_5kD: SEQ ID NO: 20: IL-2 (SEQ ID NO: 4) with P65 replaced by AzK conjugated to methoxy linear 5 kDa PEG [Compound P65_5kD]
CD8/Treg ratio (Treg cells): 2.2 | EC50, CTLL-2 proliferation (CTLL-2; Table 4): 194,924 pg/mL

Q126_30kD: 30 kD PEGylated IL-2 conjugate at Q126, made by modification of SEQ NO. 1 [Compound Q126_30kD]
CD8+/Treg ratio (Treg cells): 670 | EC50, CTLL-2 proliferation (CTLL-2; Table 12): 3584 pg/mL

S127_30kD: 30 kD PEGylated IL-2 conjugate at S127, made by modification of SEQ NO. 1 [Compound S127_30kD]
CD8+/Treg ratio (Treg cells): 615 | EC50, CTLL-2 proliferation (CTLL-2; Table 12): 123 pg/mL

T123_30kD: 30 kD PEGylated IL-2 conjugate at T123, made by modification of SEQ NO. 1 [Compound T123_30kD]
CD8+/Treg ratio (Treg cells): 569 | EC50, CTLL-2 proliferation (CTLL-2; Table 12): 255 pg/mL

T131_30kD: 30 kD PEGylated IL-2 conjugate at T131, made by modification of SEQ NO. 1 [Compound T131_30kD]
CD8+/Treg ratio (Treg cells): 515 | EC50, CTLL-2 proliferation (CTLL-2; Table 12): 641 pg/mL

V91K: IL-2 variant with substitution V91K [Compound V91K]
CD8+/Treg ratio (Treg cells): 720 | EC50, CTLL-2 proliferation (CTLL-2; Table 12): 99.5 pg/mL

From patent US20210046160A1 (Synthorx, Inc., priority 2019, published 2021)
